No end group written: not given here.

1 sequence from patent US12053506B2, “Romo1-derived antimicrobial peptides and variants thereof” (priority 2019, dated 2024) can be followed below.

The subject of series [1] is Multidrug-resistant K. pneumoniae. The conditions noted are these: Multidrug-resistant. Here is the method:
(§1) The minimum bactericidal concentration assay was the same as the method used in Example 1.
(§2) Specifically, each type of bacteria was cultured in 3% (w/v) TSB (Tryptic Soy Broth) liquid medium at 37° C. and 200 rpm for 4 hours, and then further cultured under the same conditions for 3 hours to a concentration of 5×10^6 CFU/ml. Strain solutions were prepared by diluting each of the […] of 2×10^5 CFU/ml.
(§3) Then, the KU-5878 peptide at varying concentrations (0 μg/ml to 300 μg/ml) was dispensed into each well of a 96-well microplate, and 100 μl (1×10^5 CFU/ml) of each of the prepared strain solutions was added thereto, mixed therewith, and allowed to react with the peptide in an incubator at 37° C. for 1 hour.
(§4) In addition, 10 μl of each reaction solution of the peptide and the strain was plated on the TS agar plate at a constant size, and incubated in an incubator at 37° C. for 18 hours, and then colony formation on the plate was checked.
(§5) Meanwhile, the multidrug-resistant Pseudomonas aeruginosa, multidrug-resistant Acinetobacter and multidrug-resistant Klebsiella in Table 2 below were bacteria isolated from patients at Korea University Anam Hospital. […] Then, these bacteria were used in the experiment.

Series [2] deals with Multidrug-resistant A. baumannii. The conditions noted are these: Multidrug-resistant. Here is the method: as §1, §2, §3, §4, §5
The nature of series [3]: Toxicity in vivo after intravenous injection. The conditions noted are these: 100 mg/kg intravenous. Set-up: species or system mouse (C57BL/6). Here is the method:
At this time, the maximum volume of the injection dose was 150 μl.

Series [4] relates to Enterococcus faecalis (ATCC 19433). The series is described as follows: Minimum bactericidal concentration (MBC) assay. Format: cell-based. On the procedure: as §1, §2, §3
(§6) In addition, 10 μl of each reaction solution of the peptide and the strain was plated on the TS agar plate at a constant size, and incubated in an incubator at 37° C. for 18 hours, and then colony formation on the plate was checked. The minimum bactericidal concentration was defined as the minimum concentration of the peptide at which no colony was formed, and the experimental results are shown in Table 2 below.

In series [5] the test system is Streptomyces sindenensis (ATCC 12392). The series is described as follows: Minimum bactericidal concentration (MBC) assay. The format is cell-based. Here is the method: as §1, §2, §3, §6
The test system of series [6] is Bacillus subtilis (ATCC 6633). The series is described as follows: Minimum bactericidal concentration (MBC) assay. Format: cell-based. Here is the method:
as §1, §2, §3, §6

In series [7] the test system is Enterobacter aerogenes (ATCC 13048). Put plainly: Minimum bactericidal concentration (MBC) assay. Format: cell-based. On the procedure:
as §1, §2, §3, §6

Series [8] relates to Escherichia coli (ATCC 25922). The series is described as follows: Minimum bactericidal concentration (MBC) assay. The format is cell-based. Here is the method:
as §1, §2, §3, §6

The subject of series [9] is Acinetobacter baumannii (ATCC 19606). Put plainly: Minimum bactericidal concentration (MBC) assay. Format: cell-based. Here is the method:
as §1, §2, §3, §6

Series [10] concerns Enterococcus faecium (ATCC 19434). The series is described as follows: Minimum bactericidal concentration (MBC) assay. The format is cell-based. On the procedure:
as §1, §2, §3, §6

The test system of series [11] is Klebsiella pneumoniae (ATCC 13883). Put plainly: Minimum bactericidal concentration (MBC) assay. The format is cell-based. Here is the method: as §1, §2, §3, §6
Series [12] has as its system multidrug-resistant Pseudomonas aeruginosa. The conditions noted are these: 4 h. On the procedure:
First, each of Pseudomonas aeruginosa (ATCC 27853) and Staphylococcus aureus (ATCC 29213) was cultured in 3% (w/v) TSB (Tryptic Soy Broth) liquid medium at 37° C. and 200 rpm for 4 hours, and then further cultured under the same conditions for 3 hours to a concentration of 5×10^6 CFU/ml. Strain solutions were prepared by diluting each of the further cultured strains with SP (sodium phosphate; 10 mM sodium phosphate, 1% TSB) buffer to a final concentration of 2×10^5 CFU/ml.
Then, each peptide at varying concentrations (0 μg/ml to 300 μg/ml) was dispensed into each well of a 96-well microplate, and 100 μl (1×10^5 CFU/ml) of each of the prepared strain solutions was added thereto, mixed therewith, and allowed to react with the peptide in an incubator at 37° C. for 1 hour.
In addition, 30 g/L of TS (tryptic soy) and 15 g/L of agar were dissolved in distilled water and sterilized, and then 25 ml of the solution was poured onto a 100 mm round plate and solidified at room temperature for one day or more, thereby preparing a TS agar plate. 10 μl of each reaction solution of the peptide and the strain was plated on the TS agar plate at a constant size, and incubated in an incubator at 37° C. for 18 hours, and then colony formation on the plate was checked.
as §2, §3, §4, §5

The subject of series [13] is Human vascular endothelial cells (HUVECs). Put plainly: Toxicity to human vascular endothelial cells (MTT). Format: cell-based. The conditions noted are these: 0 μg/ml to 300 μg/ml; FIG. 5. On the procedure: PBS was used as a control.
The HUMEC medium was replaced with fresh medium, and KU-5878, melittin or magainin 2 were dispensed at various concentrations (0 μg/ml to 300 μg/ml). Then, each well was treated with 100 μl of MTT reagent and incubated at 37° C. for 2 hours. Then, the medium and the peptide were carefully removed so as not to separate the cells, and 100 μl of DMSO (dimethyl sulfoxide) was added to each well, and the absorbance at a wavelength of 570 nm was measured using a spectrophotometer. Relative cell viability was calculated as a percentage of the viability of untreated control cells.

A further series relates to mouse red blood cells. The format is cell-based. On the procedure: Red blood cells were diluted with PBS, centrifuged 3 times at 900 g for 10 minutes, and washed. 100 μl of the diluted red blood cell solution (10% v/v PBS) was dispensed into each well of a 96-well microplate, and KU-5878, KU-5878-K4, KU-5878-K4-D, melittin, magainin 2 or daptomycin was added to each well which was then filled with PBS to 200 μl, followed by reaction by incubation at 37° C. for 1 hour. Then, the supernatant of the reaction solution was separated, and the absorbance at a wavelength of 550 nm was measured using a spectrophotometer. As control, PBS and 0.1% Triton X-100 (Triton X-100) solution were used.
Based on the results of measurement of the absorbance, the degree of red blood cell destruction was calculated according to Equation 1 below, and the results of the calculation are shown in FIG. 6. The % intact RBC=100(%)−[(absorbance of peptide-treated red blood cell solution−absorbance of PBS-treated red blood cell solution)/(absorbance of Triton X-100-treated red blood cell solution−absorbance of PBS-treated red blood cell solution)×100(%)] [Equation 1]

For the sequence KTMMQSGGTFGTFMAIGMGIR [KU-5878], the “MBC value (μg/ml), Multidrug-resistant K. pneumoniae” value in [1] was found to be 100 µg/mL. Also, the “MBC value (μg/ml), Multidrug-resistant A. baumannii” value in [2] came to 110 µg/mL. Further, the “survival of mice after injection” value in series [3] (12 days) is “all survived”. In [3] (weights at 24-hour intervals for 12 days, FIG. 7), the “effect on the weight of the mice” value was “no effect on the weight of the mice”. The “MBC value (μg/ml), Enterococcus faecalis” value in series [4] worked out at 85 µg/mL. Moreover, the “MBC value (μg/ml), Streptomyces sindenensis” value in [5] turned out to be 95 µg/mL. Besides, the “MBC value (μg/ml), Bacillus subtilis” value in series [6] was 90 µg/mL. Moreover, the “MBC value (μg/ml), Enterobacter aerogenes” value in series [7] turned out to be 90 µg/mL. The “MBC value (μg/ml), Escherichia coli” value in series [8] amounted to 85 µg/mL. Moreover, the “MBC value (μg/ml), Acinetobacter baumannii” value in [9] came out at 100 µg/mL. Also, the “MBC value (μg/ml), Enterococcus faecium” value in series [10] worked out at 85 µg/mL. The “MBC value (μg/ml), Klebsiella pneumoniae” value in series [11] amounted to 100 µg/mL. For the same sequence, the “MBC value (μg/ml) against multidrug-resistant Pseudomonas aeruginosa” value in [12] was 110 µg/mL. Moreover, the “toxicity to the HUVECs (relative cell viability, MTT)” value in series [13] is “very low toxicity”. Also, the “hemolysis of red blood cells” value in the series on mouse red blood cells is “little hemolysis even at a high concentration”.
